The results in this text go back to ChEMBL document CHEMBL1250455, “Further delineation of hydrophobic binding sites in dopamine D(2)/D(3) receptors for N-4 substituents on the piperazine ring of the hybrid template 5/7-{[2-(4-aryl-piperazin-1-yl)-ethyl]-propyl-amino}-5,6,7,8-tetrahydro-naphthalen-2-ol” (Bioorg Med Chem, 2010).

The target of experiment [1] is D(2) dopamine receptor (Rattus norvegicus, UniProt P61169). The experiment in a line: Displacement of [3H]spiperone from rat D2 receptor expressed in HEK293 cells. The class given is cell-based.
Sequence of D(2) dopamine receptor (Rattus norvegicus, UniProt P61169) (P61169 whole entry): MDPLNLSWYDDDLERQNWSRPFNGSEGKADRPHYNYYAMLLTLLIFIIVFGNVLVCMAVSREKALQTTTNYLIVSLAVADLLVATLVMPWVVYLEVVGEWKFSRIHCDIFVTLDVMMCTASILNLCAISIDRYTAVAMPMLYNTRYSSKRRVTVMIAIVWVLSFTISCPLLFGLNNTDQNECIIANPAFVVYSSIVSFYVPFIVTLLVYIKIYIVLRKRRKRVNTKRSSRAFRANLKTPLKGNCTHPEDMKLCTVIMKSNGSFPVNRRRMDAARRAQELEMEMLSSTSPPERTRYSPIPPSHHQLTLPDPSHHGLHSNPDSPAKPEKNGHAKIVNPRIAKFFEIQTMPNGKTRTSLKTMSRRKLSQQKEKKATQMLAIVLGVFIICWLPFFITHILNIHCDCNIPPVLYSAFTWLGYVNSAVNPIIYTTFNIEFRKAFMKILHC
In experiment [2] the target is D(3) dopamine receptor (Rattus norvegicus, UniProt P19020). As to the kind of experiment: Displacement of [3H]spiperone from rat D3 receptor expressed in HEK293 cells. It counts as cell-based.
Sequence of D(3) dopamine receptor (Rattus norvegicus, UniProt P19020) (P19020 whole entry): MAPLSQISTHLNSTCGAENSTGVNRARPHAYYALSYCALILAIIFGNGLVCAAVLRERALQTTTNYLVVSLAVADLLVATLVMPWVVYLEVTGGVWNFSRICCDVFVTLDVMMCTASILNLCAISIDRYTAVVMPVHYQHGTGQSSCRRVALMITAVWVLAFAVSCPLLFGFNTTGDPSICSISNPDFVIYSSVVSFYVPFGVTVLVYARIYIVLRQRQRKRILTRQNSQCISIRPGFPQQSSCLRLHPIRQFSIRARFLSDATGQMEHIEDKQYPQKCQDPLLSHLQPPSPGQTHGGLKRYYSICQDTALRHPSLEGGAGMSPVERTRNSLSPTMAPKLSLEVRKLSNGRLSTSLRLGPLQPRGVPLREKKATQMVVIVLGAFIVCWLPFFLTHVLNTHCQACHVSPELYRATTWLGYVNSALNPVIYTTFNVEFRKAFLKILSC
Experiment [3] is filed under the species Rattus norvegicus. The experiment in a line: Selectivity ratio for Ki for rat D2 receptor to Ki for rat D3 receptor.
For experiment [4], the target named is T1, D(2) dopamine receptor (Homo sapiens, UniProt P14416). As to the kind of experiment: Agonist activity at human dopamine D2 receptor expressed in CHO cells assessed as stimulation of [35S]GTPgammaS binding relative to dopamine. It counts as functional, cell-based. In general terms: GTPγS is a poorly hydrolysed GTP analogue; its binding reports G protein activation.
T1 sequence (P14416 whole entry): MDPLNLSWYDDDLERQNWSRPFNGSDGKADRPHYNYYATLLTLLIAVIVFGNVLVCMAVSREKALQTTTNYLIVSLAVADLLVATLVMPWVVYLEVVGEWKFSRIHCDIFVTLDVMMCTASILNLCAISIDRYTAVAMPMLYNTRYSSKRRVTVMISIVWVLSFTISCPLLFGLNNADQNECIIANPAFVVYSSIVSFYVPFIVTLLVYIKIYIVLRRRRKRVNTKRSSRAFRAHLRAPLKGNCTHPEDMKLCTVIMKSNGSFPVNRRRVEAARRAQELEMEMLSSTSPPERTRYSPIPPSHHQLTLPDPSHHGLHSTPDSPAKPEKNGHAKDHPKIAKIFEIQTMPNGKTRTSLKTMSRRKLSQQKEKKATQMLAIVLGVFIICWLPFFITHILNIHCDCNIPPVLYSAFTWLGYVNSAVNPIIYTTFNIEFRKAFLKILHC

Experiment [5] deals with T1, D(2) dopamine receptor. As to the kind of experiment: Agonist activity at human dopamine D2 receptor expressed in CHO cells assessed as stimulation of [35S]GTPgammaS binding. The class given is functional, cell-based.
The target in experiment [6] is D(3) dopamine receptor (Homo sapiens, UniProt P35462). As to the kind of experiment: Agonist activity at human dopamine D3 receptor expressed in CHO cells assessed as stimulation of [35S]GTPgammaS binding. The class given is functional, cell-based.
Sequence of D(3) dopamine receptor (Homo sapiens, UniProt P35462) (P35462 whole entry): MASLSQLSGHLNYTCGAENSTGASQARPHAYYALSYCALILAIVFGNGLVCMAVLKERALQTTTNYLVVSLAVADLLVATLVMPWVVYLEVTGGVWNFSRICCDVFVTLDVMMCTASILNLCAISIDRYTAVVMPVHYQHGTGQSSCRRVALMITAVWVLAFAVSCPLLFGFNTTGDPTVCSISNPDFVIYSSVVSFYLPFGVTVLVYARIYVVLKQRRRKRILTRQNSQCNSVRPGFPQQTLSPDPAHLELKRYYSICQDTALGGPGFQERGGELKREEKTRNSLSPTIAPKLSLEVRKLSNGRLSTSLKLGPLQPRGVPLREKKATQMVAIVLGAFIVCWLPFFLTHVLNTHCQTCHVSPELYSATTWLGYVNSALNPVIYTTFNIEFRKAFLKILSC
Experiment [7] is filed under the species Homo sapiens. The experiment in a line: Selectivity ratio of EC50 for human dopamine D2 receptor to EC50 for human dopamine D3 receptor.

In the case of `CCCN(CCN1CCN(c2ccccn2)CC1)C1CCc2ccc(O)cc2C1` (configuration not stated), the Ki amounted to 103 nM in experiment [1] and 1.96 nM in experiment [2]. Besides, in experiment [3], the Ratio Ki was found to be 52.6.
Taken in the same sequence, the figures for `CCCN(CCN1CCN(c2ncccn2)CC1)C1CCc2ccc(O)cc2C1` (configuration not stated) were 165 nM, 6.84 nM and 24.1.
Taken in the same sequence, the figures for `CCCN(CCN1CCN(c2cccnc2)CC1)C1CCc2ccc(O)cc2C1` (configuration not stated) were 21.7 nM, 2.89 nM and 7.51.
`CCCN(CCN1CCN(c2ccncc2)CC1)C1CCc2ccc(O)cc2C1` (configuration not stated): the Ki was found to be 68.3 nM in experiment [1] and 14.1 nM in experiment [2]. For the same molecule, the Ratio Ki in experiment [3] amounted to 4.84.
Taken in the same sequence, the figures for `CCCN(CCN1CCN(c2ccc(I)cc2)CC1)C1CCc2ccc(O)cc2C1` (configuration not stated) were 46.4 nM, 7.66 nM and 6.06.
As for `CCCN(CCN1CCN(c2nccc3ccccc23)CC1)[C@H]1CCc2nc(N)sc2C1`, in experiment [3], the Ratio Ki was 121.
As to `NCCc1ccc(O)c(O)c1`, the Emax in experiment [4] came to 100%.
On to `CCCN(CCN1CCN(c2ccc(-c3cccnc3)cc2)CC1)C1CCc2ccc(O)cc2C1` (racemic), for which the Ki in experiment [1] amounted to 59.1 nM; in experiment [2] it was 3.01 nM. In experiment [3], the Ratio Ki was found to be 19.6.
On to `CCCN(CCN1CCN(c2ccc(-c3ccccc3)cc2)CC1)C1CCc2c(O)cccc2C1` (single isomer, unassigned; (-)), for which the values for the Ki in experiment [1] and in experiment [2] were 53.6 nM and 2.36 nM, respectively. Further, in experiment [3], the Ratio Ki stood at 22.7. For the same molecule, the EC50 in experiment [5] was determined as 52.6 nM; in experiment [6], 0.25 nM. Also, the Ratio EC50 in experiment [7] came to 202. The maximal effect (Emax) in experiment [4] was 71.8%.
For `CCCN(CCN1CCN(c2ccc(-c3ccncc3)cc2)CC1)C1CCc2c(O)cccc2C1` (single isomer, unassigned; (-)), in experiment [2], the Ki came to 1.53 nM.
As for `CCCN(CCN1CCN(c2ccc(-c3ccncc3)cc2)CC1)C1CCc2ccc(O)cc2C1` (single isomer, unassigned; (-)), in experiment [3], the Ratio Ki was determined as 24.6.
As for `CCCN(CCN1CCN(c2ccc(-c3ccccc3)cc2)CC1)C1CCc2ccc(O)cc2C1` (stereo in doubt; 8a), the results for the Ki in experiment [1] and in experiment [2] were 64.1 nM and 5.22 nM, respectively.
In the case of `CCCN(CCN1CCN(c2ccc(-c3ccncc3)cc2)CC1)C1CCc2ccc(O)cc2C1` (stereo in doubt; 22d) [listing 1 of 2 here], the Ki in experiment [1] is 24.7 nM.
With `CCCN(CCN1CCN(c2ccc(-c3ccncc3)cc2)CC1)C1CCc2ccc(O)cc2C1` (stereo in doubt; 22d) [listing 2 of 2 here], the Ratio Ki in experiment [3] was determined as 32.
Take `CCCN(CCN1CCN(c2ccc(-c3ccccc3)cc2)CC1)C1CCc2ccc(O)cc2C1` (stereo in doubt; (+)-8a) [listing 1 of 2 here]: the results for the Ki in experiment [1] and in experiment [2] were 58 nM and 2.79 nM, respectively. The EC50 in experiment [5] came out at 108 nM; in experiment [6], 1.03 nM.
As to `CCCN(CCN1CCN(c2ccc(-c3ccccc3)cc2)CC1)C1CCc2ccc(O)cc2C1` (stereo in doubt; (+)-8a) [listing 2 of 2 here], the Ratio Ki in experiment [3] is 20.8. The Ratio EC50 in experiment [7] was 105. Besides, the Emax in experiment [4] came to 42.1%.
Turning to `CCCN(CCC)CCc1cccc2c1CC(=O)N2` [ROPINIROLE], the Ki in experiment [1] was 2670 nM. The Emax in experiment [4] came to 83.9%.

The Ki is a dissociation constant, usually derived from enzyme kinetics or from competition with a known ligand. Broadly, the Emax is the greatest response seen or fitted, relative to the assay's reference. In general, EC50 refers to the concentration giving half of the maximal effect.
